Results from patent US20100120717A1, “KINASE INHIBITORS” (priority 2006, published 2010).

Molecular target: Aurora B/INCENP (Homo sapiens, UniProt Q96GD4)
Test: Determination of inhibition of AIK: Aurora B/INCENP Direct Fluorescence Polarization (IMAP) assay
Format: biochemical
Conditions: 10 uM ATP, 0.8 nM Aurora B/INCENP, 45 min at room temperature; read-out: IC50 of Exemplified Compounds Against AIK B
Experimental: Detection of the reaction product is performed by addition of Progressive IMAP binding reagent (Molecular Devices). Reaction product may be determined quantitatively by FP using an Analyst HT plate reader (Molecular Devices) with an excitation wavelength at 485 nm and emission at 530 nm and using a Fluorescein 505 dichroic mirror.
The assay reaction may be initiated as follows: 2 ul of (3×) 300 nM Fl-Peptide/30 uM ATP was added to each well of the plate, followed by the addition of 2 ul of (3×) inhibitor (2 fold serial dilutions for 11 data points for each inhibitor) containing 15% DMSO. Two microliters of (3×) 2.4 nM AuroraB/INCENP solution may be added to initiate the reaction (final enzyme concentration was 0.8 nM for Aurora B/INCENP). The reaction mixture may then be incubated at room temperature for 45 min, and quenched and developed by addition of 20 ul of 1 to 400 diluted Progressive IMAP binding reagent in 1× proprietary Progressive IMAP binding buffer A. Fluorescence polarization readings of the resulting reaction mixtures may be measured after a 60-minute incubation at room temperature.
IC50 values may be calculated by non-linear curve fitting of the compound concentrations and fluorescent polarization values to the standard IC50 equation.

Chain of Aurora B/INCENP (Q96GD4 whole entry): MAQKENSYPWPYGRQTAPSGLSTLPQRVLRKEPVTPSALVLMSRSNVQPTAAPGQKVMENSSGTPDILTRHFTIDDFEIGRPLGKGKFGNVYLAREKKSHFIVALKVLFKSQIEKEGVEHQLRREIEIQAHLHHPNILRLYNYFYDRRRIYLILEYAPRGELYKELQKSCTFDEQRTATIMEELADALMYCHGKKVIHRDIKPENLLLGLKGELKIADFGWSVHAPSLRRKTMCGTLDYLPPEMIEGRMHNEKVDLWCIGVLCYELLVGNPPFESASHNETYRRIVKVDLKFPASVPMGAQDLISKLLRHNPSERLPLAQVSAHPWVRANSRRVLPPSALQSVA
Chain of Aurora B/INCENP (Q9NQS7 whole entry partner): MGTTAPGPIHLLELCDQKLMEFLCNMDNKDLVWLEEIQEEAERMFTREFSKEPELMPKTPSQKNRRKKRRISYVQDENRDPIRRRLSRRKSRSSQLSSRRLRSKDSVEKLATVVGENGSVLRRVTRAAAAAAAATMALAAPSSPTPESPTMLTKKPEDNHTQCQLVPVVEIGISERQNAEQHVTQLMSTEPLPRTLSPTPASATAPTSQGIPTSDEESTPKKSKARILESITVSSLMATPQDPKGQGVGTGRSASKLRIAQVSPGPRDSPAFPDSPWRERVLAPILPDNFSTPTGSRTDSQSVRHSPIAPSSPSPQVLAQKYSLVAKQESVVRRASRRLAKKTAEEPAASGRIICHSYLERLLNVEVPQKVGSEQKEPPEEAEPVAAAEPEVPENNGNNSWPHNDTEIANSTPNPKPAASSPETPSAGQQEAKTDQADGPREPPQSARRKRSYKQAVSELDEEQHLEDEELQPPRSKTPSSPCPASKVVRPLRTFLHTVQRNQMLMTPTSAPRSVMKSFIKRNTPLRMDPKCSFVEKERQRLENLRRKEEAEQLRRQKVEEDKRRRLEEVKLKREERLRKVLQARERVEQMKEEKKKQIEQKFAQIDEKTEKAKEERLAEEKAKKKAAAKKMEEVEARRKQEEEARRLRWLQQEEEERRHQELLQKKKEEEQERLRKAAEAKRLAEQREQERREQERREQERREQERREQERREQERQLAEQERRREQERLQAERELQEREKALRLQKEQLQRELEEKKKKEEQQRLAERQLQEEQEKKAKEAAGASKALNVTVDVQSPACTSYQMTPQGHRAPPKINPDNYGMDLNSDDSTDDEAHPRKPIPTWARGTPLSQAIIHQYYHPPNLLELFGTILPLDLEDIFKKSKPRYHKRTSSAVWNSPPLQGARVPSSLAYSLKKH

IC50 [nM] | SMILES
≤ 5 | CCS(=O)(=O)c1cccc(-c2ccc(OCCCN(C)CCOP(=O)(O)O)c3[nH]c4ncc(C)cc4c23)c1 [Compound 308, 2-((3-(5-(3-(ethylsulfonyl)phenyl)-3-methyl-9H-pyrido[2,3-b]indol-8-yloxy)propyl)(methyl)amino)ethyl dihydrogen phosphate]
≤ 5 | Cc1cnc2[nH]c3c(OC[C@H](CN(C)C)OP(=O)(O)O)ccc(-c4cccc(S(=O)(=O)C5CC5)c4)c3c2c1 [Compound 314, (S)-1-(5-(3-(cyclopropylsulfonyl)phenyl)-3-methyl-9H-pyrido[2,3-b]indol-8-yloxy)-3-(dimethylamino)propan-2-yl dihydrogen phosphate]
≤ 5 | Cc1cnc2[nH]c3c(OC[C@@H](CN(C)C)OP(=O)(O)O)ccc(-c4cccc(S(=O)(=O)C5CC5)c4)c3c2c1 [Compound 315, (R)-1-(5-(3-(cyclopropylsulfonyl)phenyl)-3-methyl-9H-pyrido[2,3-b]indol-8-yloxy)-3-(dimethylamino)propan-2-yl dihydrogen phosphate]
